Entries after “also recorded” stand apart in the source; their conditions may differ.
Legend:
STAT1 = test: Western blot of total and phosphorylated STAT1 in VSMCs; format: cell-based, human; conditions: VSMCs treated for 15 min, vs control
Experimental: (§1) VSMCs were thawed and cultured in medium 231 (M231; Life Technologies) with smooth muscle growth supplement (5% FBS; 2 ng/mL human basic fibroblast growth factor, 0.5 ng/mL human epidermal growth factor, 5 ng/mL heparin, 0.2 μg/mL insulin and 5 μg/mL BSA; Life Technologies) with 100 U/mL penicillin, 100 μg/mL streptomycin, 0.25 μg/mL fungizone. Confluent VSMCs were washed twice with 1×PBS to remove residual serum, passaged in 96-well or 6-well plates and incubated in parallel in M231 with 1% charcoal striped FBS with 0.1% ethanol (vehicle, control) or 10^−7 M MPA (Sigma-Aldrich) or 10^−7 M ETO (Organon) or 10^−7 M P4 (Sigma-Aldrich) for 15 min, 6, 48, and 72 h. VSMCs were then washed with ice-cold PBS and stored at −80° C. for further RNA and protein analyses.
To confirm inhibition of STAT1 signaling in LAPC-treated VSMCs, detected by IPA, cell lysates from VSMCs were run in 10% Tris-HCl gel (Bio-Rad). Transfer onto membrane, blocking, washing, chemiluminescence development, and stripping/reprobing were performed as described previously (35). The membrane was incubated with antitotal STAT1 or antiphospho-STAT1 rabbit monoclonal antibodies (Cell Signaling) and then with peroxidase-conjugated goat anti-rabbit IgG (Vector Labs). Signals were developed by a chemiluminescence kit (GE Healthcare).

VSMCs = test: qRT-PCR of H19, TMEM119, RARRES1 and CCL2 mRNA in cultured VSMCs; format: cell-based, human; conditions: vs control
Experimental: as §1
For qRT-PCR, 500 ng total RNA from each treatment was reverse transcribed by using RETROscript kit (Ambion). qRT-PCR was performed using the TaqMan Gene Expression Assay Kits for H19, TMEM119, RARRES1, and CCL2 (TaqMan ID # Hs00262142_g1, Hs01938722_m1, Hs00161204_m1 and Hs00234140_m1, respectively; Life Technologies) as described previously (36). Expression of the target mRNAs was normalized to β-actin levels, and the 2^−ΔΔCT was used to calculate relative expression levels.

endometrial VSMCs = test: αSMA and PCNA double-immunostaining of endometrium of oophorectomized guinea pigs (OVX-GPs); format: in vivo, guinea pig; conditions: 21-d time-release pellets, mean±SEM
From the text: After receiving written informed consent at New York University under Institutional Review Board approval, paraffin sections were derived from banked paired endometrial tissues obtained before and after Depo therapy by […] biopsy from each reproductive age woman with regular menstrual cycles during the secretory phase (n=6). Based on an established animal model for LAPC-induced AUB in humans (9), nulliparous adult female pigmented GPs (weighing 525-775 g) were used in experimental procedures conforming to National Health and Medical Research Council Guidelines of Australia and approved by the Animal Ethics Committee of The University of Western Australia. GPs (n=24) were subjected to bilateral OVX and given subcutaneous 21-d time-release pellets (Innovative Research of America) containing MPA (50 mg/d; n=6) or 17β-Estradiol (E2) (0.1 mg/d; n=6), both MPA and E2 (n=6), or no pellets (n=6). On day 20 of exposure to the pellets, GPs were killed with pentobarbital and uterine tissues fixed in 10% formalin and processed for paraffin embedding. In vitro experiments used aortic VSMCs from premenopausal women (n=2) (Life Technologies). Paraffin sections (5 μm) from paired pre- vs. post-Depo treated human or GP endometria were deparaffinized, boiled in citrate buffer (pH: 6.0) and then incubated in methanol containing 3% H2O2. Following 10% normal horse serum blocking (Vector Labs), slides were incubated overnight at 4° C. with mouse anti-PCNA monoclonal antibody (EMD Millipore). After several rinses in Tris-buffered saline containing 0.1% tween-20 (TBS-T; pH 7.6) slides were then incubated with biotinylated anti-mouse IgG (Vector Labs) for 30 min, then with a streptavidin-peroxidase complex (Elite ABC kit; Vector Labs) for 30 min and with diaminobenzidine (DAB; Vector Labs) for 3 min. […] Slides were counterstained by Hematoxylin and evaluated by histological scoring (HSCORE), as described previously (34). (See details for HSCORE evaluation for αSMA immunoreactivity and PCNA quantitation in SI Materials and Methods). Staining intensity for α-SMA was semiquantitatively evaluated by Q:1 HSCORE (1). […] An HSCORE value was determined for each specimen by using the formula HSCORE=ΣPi (i+1), where Pi is the percentage of stained cells in each intensity category (i.e., i=1, 2, or 3). Quantitation of PCNA immunostaining was determined by counting the number of PCNA^+ (brown) and PCNA^- cell nuclei (blue) in VSMCs (αSMA immunostained cells) and obtaining the ratio of numbers of PCNA^+ cell nuclei to total αSMA^+ cells. For each slide, three different fields were evaluated microscopically at 200× magnification. Slides were evaluated at different times by two investigators blinded to tissue source, and the average HSCORE or percentage of cells with PCNA^+ nuclei to total αSMA^+ cells used.

C#C[C@]1(O)CC[C@H]2[C@@H]3CCC4=CC(=O)CC[C@@H]4[C@H]3C(=C)C[C@@]21CC [ETO, etonogestrel]
phosphorylated levels of STAT1 (STAT1): partially reduced
total STAT1 levels (STAT1): not
CCL2 mRNA levels (VSMCs): down-regulated; also recorded: significant inhibition
H19 mRNA (VSMCs): up-regulated
RARRES1 mRNA (VSMCs): down-regulated
TMEM119 mRNA (VSMCs): up-regulated

CC(=O)O[C@]1(C(C)=O)CC[C@H]2[C@@H]3C[C@H](C)C4=CC(=O)CC[C@]4(C)[C@H]3CC[C@@]21C [MPA, medroxyprogesterone acetate]
phosphorylated levels of STAT1 (STAT1): partially reduced
total STAT1 levels (STAT1): not
PCNA+ endometrial VSMCs (endometrial VSMCs; n=6, control 11.2%±2.3): 10.2%±2.8
αSMA HSCORE (endometrial VSMCs; n=6, control 135.2±26.0): 83.50±9.0
CCL2 mRNA levels (VSMCs): significant inhibition
H19 mRNA (VSMCs): up-regulated
RARRES1 mRNA (VSMCs): down-regulated
TMEM119 mRNA (VSMCs): up-regulated
CCL2 mRNA levels (VSMCs; listed as WA): down-regulated

From patent US20180078615A1, “USE OF CCL2 TO INHIBIT ABNORMAL UTERINE BLEEDING” (UNIVERSITY OF SOUTH FLORIDA, priority 2015, published 2018)
